MIC and ED50 data for six compounds are collected here from patent EP0047977A2, “Cephalosporin derivatives, process for their preparation, pharmaceutical compositions containing them and their use” (CIBA-GEIGY AG, priority 1980, dated 1982).

Values after ≈ are worked out from the molar mass of the structure shown.

One assay concerns Escherichia coli 205. The experiment in a line: Antibiotic activity in vitro, agar dilution method in DST agar (MIC). It is filed as cell-based. In general terms: In agar dilution the substance is mixed into plates at graded concentrations.
The test system of assay [1] is Streptococcus pyogenes Aronson. Described as above. It is filed as cell-based.
In assay [2] the test system is Pseudomonas aeruginosa ATCC 12055. The assay is described as above. It is filed as cell-based. As to conditions: ATCC12055.
The subject of assay [3] is Escherichia coli 205 K 1075. The experiment in a line: Chemotherapeutic efficacy in vivo against systemic infection in the mouse (ED50). The settings on record: 205K1075, sc; s.c.; systemic infection with Escherichia coli 205 K 1075 in female SPF, MF2 mice. The text has this: (§1) B. Die chemotherapeutische Wirksamkeit in vivo gegen systemische Infektionen in weiblichen SPF, MF2 Mäusen wurde nach der Methode von Zak, 0., et al., 1979, Drugs Exptl. Clin. Res. 5, 45-59, ermittelt. Die gefundenen ED50-Werte in Milligramm Substanz pro Kilogramm Maus (mg/kg) gegen eine Anzahl von Mikroorganismen werden für die subcutan (s.c.) applizierten Testverbindungen in der Tabelle 2 angegeben.

Assay [4] concerns Pseudomonas aeruginosa ATCC 12055. The description is as above. The settings on record: ATCC12055, sc; s.c.; systemic infection with Pseudomonas aeruginosa ATCC 12055 in female SPF, MF2 mice.
Excerpt: as §1

For assay [5], the system named is Clostridium perfringens (anaerob). The experiment in a line: microbe, parasite or virus in culture. It is filed as cell-based.

Regarding `CO/N=C(\C(=O)N[C@@H]1C(=O)N2C(C(=O)[O-])=C(C[n+]3ccc(C(=O)O)cc3)CS[C@H]12)c1nsc(N)n1` [Verbindung 1, 7ß-[2-(5-Amino-1,2,4-thiadiazol-3-yl)-2-Z-methoxyiminoacetamido]-3-(4-carboxypyridiniomethyl)-3-cephem-4-carboxylat], the MIC came out at 0.05 µg/mL (≈ 0.0962 µM) against Escherichia coli 205, 0.1 µg/mL (≈ 0.192 µM) in assay [1] and 1 µg/mL (≈ 1.92 µM) in assay [2]. For the same compound, the ED50 (in general, the dose that gives a 50% effect, or the effect in half of the subjects) in assay [3] was 0.9 mg/kg; in assay [4], 6 mg/kg.
Turning to `CC(C)(O/N=C(\C(=O)N[C@@H]1C(=O)N2C(C(=O)[O-])=C(C[n+]3cccc(CC(=O)O)c3)CS[C@H]12)c1nsc(N)n1)C(=O)O` [Verbindung 2, 7β-[2-(5-Amino-1,2,4-thiadiazol-3-yl)-2-Z-2-carboxyprop-2-yloxy-iminoacetamido]-3-(3-carboxymethylpyridiniomethyl)-3-cephem-4-carboxylat], the MIC with Escherichia coli 205 came out at 1 µg/mL (≈ 1.65 µM); in assay [1] it was 1 µg/mL (≈ 1.65 µM); in assay [2], 0.5 µg/mL (≈ 0.826 µM); in assay [5], 0.1 µg/mL (≈ 0.165 µM). Further, the results for the 50% effective dose (ED50) in assay [3] and in assay [4] were 2 mg/kg and at least 30 mg/kg, respectively.
In the case of `Cn1ccc[n+]1CC1=C(C(=O)[O-])N2C(=O)[C@@H](NC(=O)/C(=N\OC(C)(C)C(=O)O)c3nsc(N)n3)[C@H]2SC1` [Verbindung 3, 7ß-[2-(5-Amino-1,2,4-thiadiazol-3-yl)-2-Z-2-carboxyprop-2-yloxy-iminoacetamido]-3-(2-methyl-1-pyrazoliomethyl)-3-cephem-4-carboxylat], the MIC came out at 0.5 µg/mL (≈ 0.908 µM) in the assay with Escherichia coli 205, 0.5 µg/mL (≈ 0.908 µM) in assay [1], 2 µg/mL (≈ 3.63 µM) in assay [2] and 0.05 µg/mL (≈ 0.0908 µM) in assay [5]. Besides, the 50% effective dose (ED50) was 5 mg/kg in assay [3] and 10 mg/kg in assay [4].
Regarding `CO/N=C(\C(=O)N[C@@H]1C(=O)N2C(C(=O)[O-])=C(C[n+]3cccn3C)CS[C@H]12)c1nsc(N)n1` [Verbindung 4, 7β-[2-(5-Amino-1,2,4-thiadiazol-3-yl)-2-Z-methoxyiminoacetamido]-3-(2-methyl-1-pyrazoliomethyl)-3-cephem-4-carboxylat], the MIC amounted to 0.1 µg/mL (≈ 0.209 µM) with Escherichia coli 205, 0.1 µg/mL (≈ 0.209 µM) in assay [1] and 0.5 µg/mL (≈ 1.04 µM) in assay [2]. Besides, the ED50 in assay [3] came to 2.4 mg/kg; in assay [4], 30 mg/kg.
`CO/N=C(\C(=O)N[C@@H]1C(=O)N2C(C(=O)[O-])=C(C[n+]3cccc(Br)c3)CS[C@H]12)c1nsc(N)n1` [Verbindung 5, 7β-[2-(5-Amino-1,2,4-thiadiazol-3-yl)-2-Z-methoxyiminoacetamido]-3--(3-brompyridiniomethyl)-3-cephem-4-carboxylat]: the MIC in the assay with Escherichia coli 205 is 0.1 µg/mL (≈ 0.18 µM); in assay [1], 0.05 µg/mL (≈ 0.0902 µM); in assay [2], 0.5 µg/mL (≈ 0.902 µM); in assay [5], 0.01 µg/mL (≈ 0.018 µM). Also, the 50% effective dose (ED50) in assay [3] was 0.9 mg/kg; in assay [4], 10 to 30 mg/kg.
Take `CO/N=C(\C(=O)N[C@@H]1C(=O)N2C(C(=O)[O-])=C(C[n+]3ccc(CO)cc3)CS[C@H]12)c1nsc(N)n1` [Verbindung 6, 7ß-[2-(5-Amino-1,2,4-thiadiazol-3-yl)-2-Z-methoxyiminoacetamido]-3-(4-hydroxymethylpyridiniomethyl)-3-cephem-4-carboxylat]: the MIC in the assay with Escherichia coli 205 worked out at 0.05 µg/mL (≈ 0.0989 µM); in assay [2], 0.1 µg/mL (≈ 0.198 µM); in assay [5] it was 0.01 µg/mL (≈ 0.0198 µM). In assay [4], this compound showed an ED50 of 3 to 10 mg/kg.
